Assay results reported in ChEMBL document CHEMBL5236595, “JDQ443, a Structurally Novel, Pyrazole-Based, Covalent Inhibitor of KRASG12C for the Treatment of Solid Tumors” (J Med Chem, 2022).
≈ marks a conversion by molar mass, not a printed value. Blank lines part the entries; values can stand above or below the compound they belong to.

Key:
[1] = tested on: GTPase KRas (Homo sapiens), P01116 [G12C]; test: Displacement of [acrylamide-2,3-3H2]-N-(3-fluoro-4-(2-methyl-3-(5-methyl-1H- indazole-4-yl)-1H-pyrrolo[ 2,3-b]pyridin-1-yl)-phenyl from KRAS G12C mutant (unknown origin) assessed as ratio of Kinact/Ki by competitive scintillation proximity assay
[2] = target: GTPase KRas (Homo sapiens, UniProt P01116, G12C); test: Inhibition of KRAS G12C mutant in human NCI-H358 cells assessed as reduction in ERK phosphorylation incubated for 6 hrs by MSD assay; type: cell-based
[3] = Aqueous solubility of compound in pH 4; type: physicochemical; settings: aqueous medium
[4] = Aqueous solubility of compound in pH 6.8; type: physicochemical; settings: aqueous medium
[5] = Lipophilicity, logD of compound at pH 7.4; type: physicochemical; settings: buffer
[6] = Apparent permeability across apical to basolateral side in MDCK-MDR1 cells at 10 uM after 2 hrs by LC-MS/MS analysis; type: ADME, cell-based, Canis lupus familiaris; settings: dog
[7] = Plasma protein binding in rat incubated for 6 hrs by LC-MS/MS based rapid equlibrium dialysis method; type: ADME, cell-free; settings: read-out: PPB (converted)
[8] = target: T1, Cytochrome P450 3A4 (Homo sapiens, UniProt P08684); test: Time dependent inhibition of CYP3A4 in pooled human liver microsomes measured upto 30 mins by LC-MS/MS method; type: ADME, Microsome; settings: 0.5 h
[9] = target: T2, Cytochrome P450 2C9 (Homo sapiens, UniProt P11712); test: Time dependent inhibition of CYP2C9 in pooled human liver microsomes measured upto 30 mins by LC-MS/MS method; type: ADME, Microsome; settings: 0.5 h
[10] = target: Sodium channel protein type 5 subunit alpha (Homo sapiens, UniProt Q14524); test: Inhibition of Nav1.5 (unknown origin)
[11] = target: Voltage-dependent L-type calcium channel subunit alpha-1C (Homo sapiens, UniProt Q13936); test: Inhibition of Cav1.2 (unknown origin)
[12] = tested on: GTPase KRas (Homo sapiens), P01116 [G12C]; test: In vivo target occupancy at KRAS G12C mutant in human MIA PaCa-2 cells xenografted mouse assessed as decrease in […] expression at 30 mg/kg, po after 24 hrs; type: functional, organism-based
[13] = tested on: MIA PaCa-2; test: Antitumor activity against human MIA PaCa-2 cells xenografted in mouse assessed as tumor regression at 10 mg/kg, po; type: functional
[14] = AUC in human MIA PaCa-2 cells xenografted mouse at 30 mg/kg, po; type: ADME, organism-based; design: dose 30 mg/kg, route po; settings: in vivo
[15] = Solubility of compound in FeSSIF; type: ADME
[16] = Cmax in Beagle dog at 15 mg/kg, po measured upto 24 hrs by LC-MS/MS method; type: ADME, organism-based, Canis lupus familiaris; design: time < 24 hrs, dose 15 mg/kg, route po; settings: in vivo
[17] = target: Voltage-gated inwardly rectifying potassium channel KCNH2 (Homo sapiens, UniProt Q12809); test: Inhibition of human ERG by manual patch clamp method; type: toxicity
[18] = target: T1, Cytochrome P450 3A4; test: Inhibition of CYP3A4 in human liver microsomes using testosterone as substrate incubated for 10 to 30 mins in presence of NADPH by LC-MS/MS method; type: ADME, Microsome
[19] = target: Cav1.2 (Homo sapiens, UniProt Q13936); test: Inhibition of Cav1.2 (unknown origin) at 50 uM relative to control
[20] = Dose normalized AUC in Beagle dog at 15 mg/kg, po measured upto 24 hrs by LC-MS/MS method; type: ADME, organism-based, Canis lupus familiaris; settings: in vivo
[21] = Solubility of compound in FaSSIF; type: ADME
[22] = Volume of distribution at steady state in Beagle dog at 0.1 mg/kg, iv measured upto 24 hrs by LC-MS/MS method; type: ADME, organism-based, Canis lupus familiaris; settings: in vivo, read-out: Vdss
[23] = Plasma protein binding in mouse incubated for 6 hrs by LC-MS/MS based rapid equlibrium dialysis method; type: ADME, cell-free; settings: read-out: PPB (converted)
[24] = Dose normalized AUC in mouse at 30 mg/kg, po measured upto 24 hrs by LC-MS/MS method; type: ADME, organism-based; settings: in vivo
[25] = target: Nav1.5 (Homo sapiens, UniProt Q14524); test: Inhibition of Nav1.5 (unknown origin) at 50 uM relative to control
[26] = AUCinfinity in Beagle dog at 15 mg/kg, po measured upto 24 hrs by LC-MS/MS method; type: ADME, organism-based, Canis lupus familiaris; design: dose 15 mg/kg, time < 24 hrs, route po; settings: in vivo
[27] = tested on: GTPase KRas (Homo sapiens), P01116 [G12C]; test: In vivo target occupancy at KRAS G12C mutant in human MIA PaCa-2 cells xenografted mouse assessed as decrease in free KRAS G12C level at 30 mg/kg, po after 3 hrs; type: functional, organism-based
[28] = tested on: GTPase KRas (Homo sapiens), P01116 [G12C]; test: In vivo target occupancy at KRAS G12C mutant in human MIA PaCa-2 cells xenografted mouse assessed as decrease in […] expression at 30 mg/kg, po after 6 hrs; type: functional, organism-based
[29] = tested on: NCI-H358; test: Antiproliferative activity against human NCI-H358 cells by resazurin assay; type: functional
[30] = tested on: GTPase KRas (Homo sapiens), P01116 [G12C]; test: In vivo target occupancy at KRAS G12C mutant in human MIA PaCa-2 cells xenografted mouse assessed as decrease in free KRAS G12C level at 30 mg/kg, po after 24 hrs; type: functional, organism-based
[31] = Tmax in Beagle dog at 15 mg/kg, po measured upto 24 hrs by LC-MS/MS method; type: ADME, organism-based, Canis lupus familiaris; settings: in vivo
[32] = Tmax in mouse xenografted with human MIA PaCa-2 cells at 3 to 30 mg/kg, po; type: ADME, organism-based; settings: in vivo, dose 3-30 mg/kg
[33] = tested on: NCI-H1437; test: Antiproliferative activity against human NCI-H1437 cells by resazurin assay; type: functional
[34] = Plasma protein binding in human incubated for 6 hrs by LC-MS/MS based rapid equlibrium dialysis method; type: ADME, cell-free; settings: read-out: PPB (converted)
[35] = Toxicity in mouse xenografted with human MIA PaCa-2 cells assessed as tolerability at 3 to 30 mg/kg, po; type: organism-based; settings: in vivo, dose 3-30 mg/kg
[36] = tested on: GTPase KRas (Homo sapiens), P01116 [G12C]; test: In vivo target occupancy at KRAS G12C mutant in human MIA PaCa-2 cells xenografted mouse assessed as decrease in […] expression at 30 mg/kg, po after 3 hrs; type: functional, organism-based
[37] = tested on: MIA PaCa-2; test: Antitumor activity against human MIA PaCa-2 cells xenografted in mouse assessed as tumor regression at 30 mg/kg, po; type: functional
[38] = AUCinfinity in mouse at 30 mg/kg, po measured upto 24 hrs by LC-MS/MS method; type: ADME, organism-based; design: dose 30 mg/kg, time < 24 hrs, route po; settings: in vivo
[39] = Tmax in mouse at 30 mg/kg, po measured upto 24 hrs by LC-MS/MS method; type: ADME, organism-based; settings: in vivo
[40] = Cmax in mouse at 30 mg/kg, po measured upto 24 hrs by LC-MS/MS method; type: ADME, organism-based; design: dose 30 mg/kg, time < 24 hrs, route po; settings: in vivo
[41] = Plasma protein binding in dog incubated for 6 hrs by LC-MS/MS based rapid equlibrium dialysis method; type: ADME, cell-free, Canis lupus familiaris; settings: read-out: PPB (converted)
[42] = Apparent permeability in human Caco-2 cells; type: ADME, cell-based
[43] = tested on: GTPase KRas (Homo sapiens), P01116 [G12C]; test: In vivo target occupancy at KRAS G12C mutant in human MIA PaCa-2 cells xenografted mouse assessed as decrease in free KRAS G12C level at 30 mg/kg, po after 6 hrs; type: functional, organism-based
[44] = Cmax in human MIA PaCa-2 cells xenografted mouse at 30 mg/kg, po; type: ADME, organism-based; design: dose 30 mg/kg, route po; settings: in vivo
[45] = target: T2, Cytochrome P450 2C9; test: Inhibition of CYP2C9 in human liver microsomes using diclofenac as substrate incubated for 10 to 30 mins in presence of NADPH by LC-MS/MS method; type: ADME, Microsome
[46] = target: Cytochrome P450 2D6 (Homo sapiens, UniProt P10635); test: Inhibition of CYP2D6 in human liver microsomes using bufuralol as substrate incubated for 10 to 30 mins in presence of NADPH by LC-MS/MS method; type: ADME, Microsome
[47] = Volume of distribution at steady state in mouse at 1 mg/kg, iv measured upto 24 hrs by LC-MS/MS method; type: ADME, organism-based; settings: in vivo, read-out: Vdss
[48] = Cysteine reactivity in pH 7.4 phosphate buffer assessed as compound half life at 2 uM in presence of GSH

Ratio [1]: 0.1 mM⁻¹ s⁻¹
SMILES: C=CC(=O)Nc1ccc(-n2nc(C)c(-c3c(C)ccc4[nH]ncc34)c2C)cc1

SMILES: C=CC(=O)N1CC2(CC(n3nc(C(C)C)c(-c4c(C)ccc5[nH]ncc45)c3C)C2)C1
Ratio [1]: 0.4 mM⁻¹ s⁻¹
IC50 [2]: 3.9 µM

SMILES: C=CC(=O)N1CC2(CC(n3nc(-c4ccc5cn[nH]c5c4)c(-c4c(Cl)c(C)cc5[nH]ncc45)c3C)C2)C1
Ratio [1]: 19 mM⁻¹ s⁻¹
IC50 [2]: 0.05 µM

SMILES: C=CC(=O)N1CC2(CC(n3nc(-c4ccc5nn(CCN6CCOCC6)cc5c4)c(-c4c(Cl)c(C)cc5[nH]ncc45)c3C)C2)C1
Ratio [1]: 190 mM⁻¹ s⁻¹
solubility [3]: > 1000 µM
solubility [4]: 30 µM (≈ 18.8 µg/mL)
logD [5]: 4.2
IC50 [2]: 0.01 µM
Papp A→B at 2 h, 10 µM [6]: 2.8 ×10⁻⁶ cm/s

SMILES: C=CC(=O)N1CC2(CC(n3nc(-c4ccc5c(cnn5C)c4)c(-c4c(Cl)c(C)cc5[nH]ncc45)c3C)C2)C1 [OPNURASIB]
fraction unbound at 6 h [7]: 0.024
TDI [8]: Not Active
TDI [9]: Not Active
IC50 [10]: > 10 µM
IC50 [11]: > 10 µM
Occ [12]: 100%
Activity [13]: -34%
AUC [14]: 8.9 µM·h
solubility [15]: 250 µg/mL (≈ 475 µM)
Cmax [16]: 1100 nM
IC50 [17]: > 4.7 µM
IC50 [18]: 6.23 µM
inhibition at 50 µM [19]: 8%
AUC/dose [20]: 0.65 µM·h
solubility [21]: 6 µg/mL (≈ 11.4 µM)
Vd [22]: 4.2 L/kg
fraction unbound at 6 h [23]: 0.016
AUC/dose [24]: 0.2 µM·h
inhibition at 50 µM [25]: 12%
AUC(0-inf) [26]: 10 µM·h
Occ [27]: 3%
Occ [28]: 37%
GI50 [29]: 0.018 µM
Occ [30]: 23%
Tmax [31]: 300 min
solubility [3]: 10 µM (≈ 5.26 µg/mL)
Tmax [32]: 60 min
GI50 [33]: 4.4 µM
fraction unbound at 6 h [34]: 0.007
Activity [35]: Non-Toxic
solubility [4]: 10 µM (≈ 5.26 µg/mL)
Occ [36]: 27%
Activity [37]: -87%
AUC(0-inf) [38]: 6 µM·h
Tmax [39]: 30 min
Cmax [40]: 2000 nM
fraction unbound at 6 h [41]: 0.031
Papp [42]: 6.78 ×10⁻⁶ cm/s
Occ [43]: 2%
Cmax [44]: 1700 nM
logD [5]: 4.6
IC50 [45]: 3.74 µM
IC50 [2]: 0.02 µM
IC50 [46]: > 20 µM
Papp A→B at 2 h, 10 µM [6]: 5 ×10⁻⁶ cm/s
Vd [47]: 5.9 L/kg

Ratio [1]: 0.2 mM⁻¹ s⁻¹
SMILES: C=CC(=O)Nc1ccc(-c2nn(C(C)C)c(-c3c(C)ccc4[nH]ncc34)c2C)c(F)c1
T1/2 [48]: 57 min
